# Test results as given in publication PMC7910569 (Scientific Data, 2021).
# Like-named read-outs stand apart in the source and are kept apart here.
# How the values were obtained:
# SARS-CoV-2 [1] = settings: for anti-cytopathic activity against SARS-CoV-2 (in words): Caco-2, hits / concentration-response screen; for inhibition of cytopathicity in the concentration-response screen: Caco-2, compound concentrations of up to 20 µM
# SARS-CoV-2 [2] = test: microbe, parasite or virus in culture; settings: Severe acute respiratory syndrome coronavirus 2, Caco-2, 48 h, read-out: Results SARS-CoV-2 (Caco-2) IC50
# in vitro = settings: human, Caco-2
# SARS-CoV-2 [3] = format: cell-based; settings: 10 µM
# Description: For the primary screen, the final compound concentration was 10 µM (in 0.1% DMSO) and each compound was tested in singlicate. Concentration-response profiling of primary hits was performed in triplicate with eight concentrations ranging from 20 µM to 20 nM (half-log dilution factor, 0.1% DMSO final). For initial dose response studies, compounds were tested on three different plates to minimise the influence of plate effects. Later dose response studies at lower concentrations were also done on the same plate. Following the addition of compounds, cells were immediately infected with SARS-CoV-2 at a multiplicity of infection (MOI) of 0.01. Positive controls were prepared with the virus but no compounds, and negative controls were prepared without the virus. After 48 h, the medium was removed and cells were fixed in 3% paraformaldehyde in phosphate-buffered saline (PBS). The plates were sealed and disinfected to inactivate the virus[13] then screened by high-content imaging using the Operetta CLS platform (PerkinElmer). The image data were processed as described below and deposited on the Image Data Resource[14].
# Images were acquired using a 10× objective with nine imaged fields per well in label-free mode by digital phase contrast (DPC). […] This method improves the signal-to-noise ratio and allows for image segmentation and single-cell analysis. The images were analysed using PerkinElmer Columbus v2.9.0. The analysis sequence started with cell detection (method c, common threshold 0.05, area >100 µm^2, splitting coefficient 6.5, individual threshold 0.05, contrast >0.05) and was followed by calculating morphology, intensity and position properties as well as cell confluence (Fig. 2). The data were deposited on the Image Data Resource[14]. Although we used cell confluence as a read out parameter additional parameters were calculated and deposited as well. These parameters can be used for further analysis to include parameters related to cellular stress or cytoskeletal impairment, both critical for viral replication. Well-level data were analysed in ActivityBase (IDBS) and R v3.6.1, using cell confluence as final read out parameter. […] Outliers were eliminated according to the three-sigma method. Plate-level statistical performance was assessed using the Z’factor calculation with values between 0.35 and 1.0 representing an acceptable assay. Data for the primary screen were deposited on ChEMBL[17].Concentration-response curves were fitted in GraphPad Prism v8.0.0 (GraphPad Software) using a four-parameter […] (least squares fit). Data for the dose-response screen were deposited on ChEMBL[18].
# Cytopathicity assays were conducted in 96 well Cellstar plates (Greiner bio-one) using 4 wells with cells without virus (negative control) and 4 wells with cells and with virus (positive control). A three-sigma invalidation was performed on the raw data of the controls on each plate, resulting in maximal one invalidated well per plate during primary screening. During hit confirmation and dose-response studies no wells were eliminated as all wells were within three-sigma. After invalidation the plate specific z’factor was calculated and the plate was removed if quality criteria (z’factor > 0.35) were not met. Plates passing quality control were analysed and normalized as specified above. Hits were identified by having at least 75% efficiency in blocking viral cytopathicity at 10 µM.
# SARS-CoV-2 [4] = settings: Vero-E6, read-out: Reports SARS-CoV-2 (Vero-E6) IC50, cited from earlier work
# SARS-CoV [5] = settings: Calu-3; read-out: Reports SARS-CoV (Vero-E6 or Calu-3) IC50; cited from earlier work
# MERS-CoV [6] = settings: Calu-3; read-out: Reports MERS (Vero-6, Calu-3 or BHK21) IC50; cited from earlier work
# MERS-CoV [7] = settings: cited from earlier work
# SARS-CoV [8] = settings: read-out: Reports SARS-CoV (Vero-E6) IC50, cited from earlier work
# MERS-CoV [9] = settings: BHK-21; read-out: Reports MERS (Vero-6, Calu-3 or BHK21) IC50; cited from earlier work
# [10] = singlicate, Caco-2, 48 h, hit = at least 75% inhibition of cytopathicity
# [11] = Vero-E6, ref 53, read-out: Reports MERS (Vero-E6) IC50
smiles,measurement,setting,value
Cc1c(C(=O)Nc2ccc(N3C[C@@H](C)O[C@@H](C)C3)nc2)cccc1-c1ccc(OC(F)(F)F)cc1 [LDE225],anti-cytopathic activity against SARS-CoV-2 (in words),SARS-CoV-2 [1],identified
"O[C@@H](COc1cccc2ncccc12)CN1CCN([C@@H]2c3ccccc3[C@@H]3[C@H](c4ccccc42)C3(F)F)CC1 [LY335979, zosuquidar]",anti-cytopathic activity against SARS-CoV-2 (in words),SARS-CoV-2 [1],identified
CC(=NNC(=S)N1CC2CCC(CC2)C1)c1ccccn1 [NSC319276],anti-cytopathic activity against SARS-CoV-2 (in words),SARS-CoV-2 [1],moderately potent
CNS(=O)(=O)Nc1nccc(Cc2c(C)c3ccc(Oc4ncccn4)cc3oc2=O)c1F [RO5126766],IC50,SARS-CoV-2 [2],18.2 µM
same,CC50,in vitro,> 20 µM
Cc1cccc2c1CC[C@H](CN1CCC(c3c(Cl)cccc3Cl)CC1)C[C@@H]2O [SB-612111],IC50,SARS-CoV-2 [2],0.77 µM
CCN(CC)Cc1cc(Nc2ccnc3cc(Cl)ccc23)ccc1O [amodiaquine],activity in the primary screen (in words),SARS-CoV-2 [3]; [10],inactive
N#CC(c1ccnc(OCc2ccc(CN3CCOCC3)cc2)n1)c1nc2ccccc2s1 (stereo not drawn) [bentamapimod],IC50,SARS-CoV-2 [2],5.9 µM
same,CC50 at 48 h,in vitro,> 20 µM
CN(C)C(=O)COC(=O)Cc1ccc(OC(=O)c2ccc(NC(=N)N)cc2)cc1 [camostat],IC50,SARS-CoV-2 [2],< 1 µM
same,IC50,SARS-CoV-2 [4]; ref 23,> 50 µM
same,IC50,SARS-CoV-2 [4]; ref 24,1 µM
same,IC50,SARS-CoV [5],~1 µM
same,IC50,MERS-CoV [6],1 µM
C[C@H](CS)C(=O)N1CCC[C@H]1C(=O)O [captopril],activity in the primary screen (in words),SARS-CoV-2 [3]; [10],did not identify
CCN(CC)CCCC(C)Nc1ccnc2cc(Cl)ccc12 (stereo not drawn) [chloroquine diphosphate],activity in the primary screen (in words),SARS-CoV-2 [3]; 48 h,inactive
CCN(CC)CCCC(C)Nc1ccnc2cc(Cl)ccc12 (stereo not drawn) [chloroquine],IC50,SARS-CoV-2 [2],> 20 µM
same,IC50,MERS-CoV [7]; [11],6.28 µM
same,IC50,SARS-CoV-2 [4]; ref 22,1.13 µM
same,IC50,SARS-CoV-2 [4]; ref 55,46.8 µM
same,IC50,"SARS-CoV [8]; Vero-E6, ref 56",4.4 µM
same,anti-cytopathic activity against SARS-CoV-2 (in words),SARS-CoV-2 [1],not observed
C=C(c1ccccc1OCc1cccc(Cl)c1)n1ccnc1 [cloconazole],IC50,SARS-CoV-2 [1]; read-out: Results SARS-CoV-2 (Caco-2) IC50,≥ 20 µM
C[C@@H]1C[C@@H]([C@H](O)CC2CC(=O)NC(=O)C2)C(=O)[C@@H](C)C1 [cycloheximide],IC50,SARS-CoV-2 [2],0.58 ± 0.02 µM
same,IC50,MERS-CoV [7]; read-out: Reports MERS (Vero-E6) IC50,0.16 µM
same,CC50 at 48 h,in vitro,> 20 µM
same,IC50,SARS-CoV [8],0.043 µM
CC(C)CN(C[C@@H](O)[C@H](Cc1ccccc1)NC(=O)O[C@H]1CO[C@H]2OCC[C@H]21)S(=O)(=O)c1ccc(N)cc1 [darunavir],activity in the primary screen (in words),SARS-CoV-2 [3]; [10],inactive
CC[C@H]1CN2CCc3cc(OC)c(OC)cc3[C@@H]2C[C@@H]1C[C@H]1NCCc2cc(OC)c(OC)cc21 [emetine],IC50,SARS-CoV-2 [2],0.52 ± 0.09 µM
same,IC50,"MERS-CoV [7]; Vero-E6, ref 54, read-out: Reports MERS (Vero-E6) IC50",0.08 µM
same,CC50,in vitro,1.13 ± 0.5 µM
same,IC50,"SARS-CoV [8]; Vero-E6, ref 53",0.051 µM
same,CI (cytotoxicity index),SARS-CoV-2 [1]; human,2
COC(=O)C[C@](O)(CCCC(C)(C)O)C(=O)O[C@@H]1C(OC)=C[C@]23CCCN2CCc2cc4c(cc2[C@H]13)OCO4 [homo-harringtonine],anti-cytopathic activity against SARS-CoV-2 (in words),SARS-CoV-2 [1],identified
CCN(CCO)CCCC(C)Nc1ccnc2cc(Cl)ccc12 (stereo not drawn) [hydroxychloroquine],activity in the primary screen (in words),SARS-CoV-2 [3]; [10],inactive
Cc1cccc(C)c1OCC(=O)N[C@@H](Cc1ccccc1)[C@@H](O)C[C@H](Cc1ccccc1)NC(=O)[C@H](C(C)C)N1CCCNC1=O [lopinavir],"Reports MERS (Vero-6, Calu-3 or BHK21) IC50","MERS-CoV [7]; Vero-E6, ref 57, 58",not active
same,IC50,"MERS-CoV [7]; Vero-E6, ref 57, 58, read-out: Reports MERS (Vero-6, Calu-3 or BHK21) IC50",8 µM
same,IC50,SARS-CoV-2 [4]; ref 23,9.12 µM
same,anti-cytopathic activity against SARS-CoV-2 (in words),SARS-CoV-2 [1],active at the highest concentration
CCCCN(CCCC)CC(O)c1cc(Cl)cc2c1-c1ccc(Cl)cc1/C2=C/c1ccc(Cl)cc1 (stereo not drawn) [lumefantrine],activity in the primary screen (in words),SARS-CoV-2 [3]; [10],inactive
OC(c1cc(C(F)(F)F)nc2c(C(F)(F)F)cccc12)C1CCCCN1 (stereo not drawn) [mefloquine],IC50,MERS-CoV [7]; [11],15.5 µM
same,IC50,SARS-CoV-2 [4]; ref 23,4.33 µM
same,IC50,SARS-CoV-2 [4]; ref 55,8.06 µM
same,activity in the primary screen (in words),SARS-CoV-2 [3]; [10],identified in the primary screen
same,IC50,"SARS-CoV [8]; Vero-E6, ref 53",7.41 µM
N=C(N)c1ccc2cc(OC(=O)c3ccc(N=C(N)N)cc3)ccc2c1 [nafamostat],IC50,"SARS-CoV-2 [4]; ref 27, 28",22.5 µM
same,IC50,MERS-CoV [6],0.1 µM
same,potency against SARS-CoV-2 in Caco-2 cell assay relative to previous studies using Vero-E6 cells,"SARS-CoV-2 [1]; comparison with refs 27, 28",> 500 fold
COc1ccc(Cc2nccc3cc(OC)c(OC)cc23)cc1OC [papaverine],IC50,MERS-CoV [9],9.45 µM
NS(=O)(=O)OC[C@@H]1C[C@@H](n2ccc3c(N[C@H]4CCc5ccccc54)ncnc32)C[C@@H]1O [pevonedistat],IC50,SARS-CoV-2 [2],< 1 µM
COc1cc(NC(C)CCCN)c2ncccc2c1 (stereo not drawn) [primaquine],activity in the primary screen (in words),SARS-CoV-2 [3]; [10],inactive
COc1ccc2nc3cc(Cl)ccc3c(Nc3cc(CN4CCCC4)c(O)c(CN4CCCC4)c3)c2n1 [pyronaridine],activity in the primary screen (in words),SARS-CoV-2 [3]; [10],inactive
same,inhibition of cytopathicity in the concentration-response screen,SARS-CoV-2 [1],< 50%
CCC(CC)COC(=O)[C@H](C)N[P@](=O)(OC[C@H]1O[C@@](C#N)(c2ccc3c(N)ncnn23)[C@H](O)[C@@H]1O)Oc1ccccc1 [remdesivir],IC50,SARS-CoV-2 [2],0.76 ± 0.18 µM
same,CC50,in vitro,> 20 µM
same,IC50,"SARS-CoV [8]; Vero-E6, ref 22",0.069 µM
CC(C)c1nc(CN(C)C(=O)N[C@H](C(=O)N[C@@H](Cc2ccccc2)C[C@H](O)[C@H](Cc2ccccc2)NC(=O)OCc2cncs2)C(C)C)cs1 [ritonavir],activity in the primary screen (in words),SARS-CoV-2 [3]; 48 h,inactive
COc1cc(C)c2c(Oc3cccc(C(F)(F)F)c3)c(OC)cc(NC(C)CCCN)c2n1 (stereo not drawn) [tafenoquine],activity in the primary screen (in words),SARS-CoV-2 [3]; [10],inactive
same,inhibition of cytopathicity in the concentration-response screen,SARS-CoV-2 [1],< 50%
C[C@@H]1CN(Cc2ccc(F)cc2)[C@@H](C)CN1C(=O)c1cc2c(C(=O)C(=O)N(C)C)cn(C)c2cc1Cl [talmapimod],IC50,SARS-CoV-2 [2],9.6 µM
same,CC50,in vitro,> 20 µM
Nc1nc2c(ncn2[C@@H]2O[C@H](CO)[C@@H](O)[C@H]2O)c(=S)[nH]1 [thioguanosine],IC50,SARS-CoV-2 [2],0.78 µM
same,CI (cytotoxicity index),"SARS-CoV-2 [1]; printed as CI = IC50/CC50, Caco-2 toxicity versus SARS-CoV-2 anti-cytopathic effect",< 3
